One molecule from patent publication US10669239B2, “Tetrahydronaphthyl urea derivative” (MOCHIDA PHARMACEUTICAL CO., LTD., priority 2017, dated 2020) can be followed below.

As usually defined, the IC50 is the concentration needed to halve the response being measured.

This assay addresses human TrkA protein (Homo sapiens (Human), UniProt P04629). The assay can be described thus: TrkA LanthaScreen Eu Kinase Binding Assay (binding activity for human TrkA protein). Conditions: TrkA enzyme, Kinase Tracer 236, TR-FRET, 60 minutes at room temperature. How it is done: (Pharmacological Experimental Example 1): Evaluation of Binding Activity for Human TrkA Protein
Measurement was carried out using TrkA LanthaScreen (registered trademark) Eu Kinase Binding Assay (ThermoFisher SCIENTIFIC). To a 384 well plate (Corning), 2.5 μL of the test compound having various concentrations and diluted with Kinase buffer (ThermoFisher SCIENTIFIC) and 2.5 μL of 15 nM TrkA enzyme (ThermoFisher SCIENTIFIC) were added. Moreover, 5 μL of 3 nM Eu-anti-His Tag antibody (ThermoFisher SCIENTIFIC) and 5 μL of 30 nM Kinase (registered trademark) Tracer 236 (ThermoFisher SCIENTIFIC) were added, followed by reaction at room temperature for 60 minutes. After the reaction, the fluorescence intensity of Europium (Emission wavelength 615 nm) and TR-FRET (Emission wavelength 665 nm) with an excitation wavelength of 340 nm were measured with EnVision 2100 (PerkinElmer) to calculate the fluorescence ratio as the amount of the test compound and the TrkA enzyme bonded. The inhibitory activity (IC50 value) of each test compound was calculated with the fluorescence ratio of the well to which a solvent was added instead of the test compound being 0% and the fluorescence ratio of the well without addition of the TrkA protein being 100%.
In Table 1, Compounds 1 to 62 respectively mean Compounds 1 to 62 synthesized in accordance with Examples 1 to 62 described later.
A general note: TR-FRET usually uses a lanthanide donor and a delayed reading to cut background.

Chain of human TrkA protein (P04629 33-796): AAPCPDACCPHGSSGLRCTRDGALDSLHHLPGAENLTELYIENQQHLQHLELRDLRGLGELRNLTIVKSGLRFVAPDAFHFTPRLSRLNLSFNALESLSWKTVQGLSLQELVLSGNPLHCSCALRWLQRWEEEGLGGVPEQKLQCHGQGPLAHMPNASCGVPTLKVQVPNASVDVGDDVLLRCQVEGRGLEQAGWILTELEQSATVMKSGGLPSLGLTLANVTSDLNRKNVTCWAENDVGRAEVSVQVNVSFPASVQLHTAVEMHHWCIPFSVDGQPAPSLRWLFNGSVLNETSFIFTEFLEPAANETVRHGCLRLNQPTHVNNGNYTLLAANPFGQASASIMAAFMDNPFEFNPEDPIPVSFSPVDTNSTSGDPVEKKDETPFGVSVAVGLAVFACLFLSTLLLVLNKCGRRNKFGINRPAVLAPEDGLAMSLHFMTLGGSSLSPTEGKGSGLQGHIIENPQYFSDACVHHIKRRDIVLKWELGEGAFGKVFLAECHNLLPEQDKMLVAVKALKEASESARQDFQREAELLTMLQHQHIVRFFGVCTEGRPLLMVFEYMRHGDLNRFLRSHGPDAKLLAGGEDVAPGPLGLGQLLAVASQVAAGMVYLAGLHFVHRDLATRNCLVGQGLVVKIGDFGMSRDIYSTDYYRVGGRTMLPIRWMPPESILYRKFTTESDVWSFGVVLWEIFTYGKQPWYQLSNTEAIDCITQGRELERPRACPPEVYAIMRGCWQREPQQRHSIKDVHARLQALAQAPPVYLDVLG

In the case of `Cc1cc(NC(=O)N[C@@H]2c3cc(F)c(F)cc3C(C)(C)C[C@H]2O)c(-c2ccccc2)nc1-c1ccnc(CO)c1` (racemic) [Compound 56, rac-1-((1R,2R)-6,7-difluoro-2-hydroxy-4,4-dimethyl-1,2,3,4-tetrahydronaphthalen-1-yl)-3-(2′-(hydroxymethyl)-3-methyl-6-phenyl-[2,4′-bipyridin]-5-yl)urea], the IC50 was no more than 50 nM.
